“And” between values parts separate entries of the source, which are not always exact repeats. Equal entries are not always repeated. Toxic doses and inconclusive results are not listed. Rule for the calls: active = survival T/C of 150% or more; inactive = T/C below 125% in these data. Peptide text beside a SMILES is read from it. * marks the point of attachment. Trt = c1ccc(C(c2ccccc2)(c2ccccc2)*)cc1; Benzhydryl = c1ccc(C(c2ccccc2)*)cc1; Cbz = O=C(OCc1ccccc1)*; OtBu = CC(C)(C)O*
Tested on: P388 leukemia ip, CD2F1 mice, survival T/C
Assay: NCI In Vivo Anticancer Drug Screen. Data for tumor model P388 Leukemia (intraperitoneal) in CD2F1 (CDF1) mice
Settings: endpoint: median survival time, higher = longer survival
How it was run: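 Mice carrying the transplanted tumor received test compound or vehicle. Survival was recorded in each group, and the value is the treated-group measurement divided by that of the vehicle-treated control group.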

[1] = dose: 50.0 mg/kg/injection, schedule: Q01DX009 (ip), vehicle: saline with Tween-80
[2] = dose: 50.0 mg/kg/injection, schedule: Q01DX009 (ip), vehicle: saline
[3] = dose: 100.0 mg/kg/injection, schedule: Q01DX009 (ip), vehicle: saline with Tween-80
[4] = dose: 100.0 mg/kg/injection, schedule: Q01DX009 (ip), vehicle: saline
[5] = dose: 200.0 mg/kg/injection, schedule: Q01DX009 (ip), vehicle: saline with Tween-80
[6] = dose: 400.0 mg/kg/injection, schedule: Q01DX009 (ip), vehicle: saline with Tween-80
[7] = dose: 12.5 mg/kg/injection, schedule: Q01DX005 (ip), vehicle: Klucel (hydroxypropylcellulose) (HPC)
[8] = dose: 25.0 mg/kg/injection, schedule: Q01DX005 (ip), vehicle: Klucel (hydroxypropylcellulose) (HPC)
[9] = dose: 50.0 mg/kg/injection, schedule: Q01DX005 (ip), vehicle: Klucel (hydroxypropylcellulose) (HPC)
[10] = dose: 60.0 mg/kg/injection, schedule: Q01DX005 (ip), vehicle: saline with Tween-80
[11] = dose: 120.0 mg/kg/injection, schedule: Q01DX005 (ip), vehicle: saline with Tween-80
[12] = dose: 240.0 mg/kg/injection, schedule: Q01DX005 (ip), vehicle: saline with Tween-80
[13] = dose: 60.0 mg/kg/injection, schedule: Q01DX005 (ip), vehicle: Klucel (hydroxypropylcellulose) (HPC)
[14] = dose: 100.0 mg/kg/injection, schedule: Q01DX005 (ip), vehicle: Klucel (hydroxypropylcellulose) (HPC)
[15] = dose: 200.0 mg/kg/injection, schedule: Q01DX005 (ip), vehicle: Klucel (hydroxypropylcellulose) (HPC)
[16] = dose: 100.0 mg/kg/injection, schedule: Q04DX002 (ip), vehicle: Klucel (hydroxypropylcellulose) (HPC)
[17] = dose: 200.0 mg/kg/injection, schedule: Q04DX002 (ip), vehicle: Klucel (hydroxypropylcellulose) (HPC)
[18] = dose: 50.0 mg/kg/injection, schedule: Q01DX005 (ip), vehicle: saline with Tween-80
[19] = dose: 100.0 mg/kg/injection, schedule: Q01DX005 (ip), vehicle: saline with Tween-80
[20] = dose: 200.0 mg/kg/injection, schedule: Q01DX005 (ip), vehicle: saline with Tween-80

Measured: T/C

CN1CCN(C(=O)N2CCCc3ccccc32)CC1
inactive: dose: 100.0 mg/kg/injection, schedule: Q04DX003 (ip), vehicle: saline 101 % of control | dose: 200.0 mg/kg/injection, schedule: Q04DX003 (ip), vehicle: saline 99 % of control

c1ccc2c(c1)Nc1c(ccc3ccccc13)S2
inactive: [1] 95 % of control | [2] 102 % of control | [3] 112 % of control | [4] 98 % of control | [5] 113 % of control | dose: 200.0 mg/kg/injection, schedule: Q01DX009 (ip), vehicle: saline 109 % of control | [6] 113 % of control | dose: 400.0 mg/kg/injection, schedule: Q01DX009 (ip), vehicle: saline 100 % of control

CCCCOc1ccc2nccc(N/N=C/c3ccc(OC)c4ccccc34)c2c1
inactive: [7] 88 % of control | [8] 88 % of control | [9] 92 % of control and 94 % of control

O=C(O)c1cc(OCc2ccccc2)cc(OCc2ccccc2)c1
inactive: [10] 96 % of control | [11] 102 % of control | [12] 106 % of control

CC(C)(C)OC(=O)CNC(=O)C(Cc1ccccc1)NC(=O)C(CSC(c1ccccc1)(c1ccccc1)c1ccccc1)NC(=O)CNC(=O)C(Cc1ccccc1)NC(=O)CNC(=O)C(CSC(c1ccccc1)c1ccccc1)NC(=O)C(CSC(c1ccccc1)(c1ccccc1)c1ccccc1)NC(=O)OCc1ccccc1 (stereo not drawn) (Cbz-C(Trt)C(Benzhydryl)GFGC(Trt)FG-OtBu; configuration not given here)
inactive: [13] 100 % of control | dose: 120.0 mg/kg/injection, schedule: Q01DX005 (ip), vehicle: Klucel (hydroxypropylcellulose) (HPC) 98 % of control

CC(C)(C)OC(=O)NCS(=O)(=O)N(Cc1ccccc1)Cc1ccccc1
inactive: [9] 102 % of control | [14] 101 % of control | [15] 97 % of control

CN(C)c1cc(O)c(-n2c3cc(=O)c(N(C)C)cc-3nc3ccccc32)cc1O
inactive: dose: 3.12 mg/kg/injection, schedule: Q01DX009 (ip), vehicle: saline 100 % of control | dose: 6.25 mg/kg/injection, schedule: Q01DX009 (ip), vehicle: saline with Tween-80 93 % of control | dose: 6.25 mg/kg/injection, schedule: Q01DX009 (ip), vehicle: saline 96 % of control | dose: 12.5 mg/kg/injection, schedule: Q01DX009 (ip), vehicle: saline with Tween-80 90 % of control | dose: 12.5 mg/kg/injection, schedule: Q01DX009 (ip), vehicle: saline 100 % of control | dose: 25.0 mg/kg/injection, schedule: Q01DX009 (ip), vehicle: saline with Tween-80 91 % of control | dose: 25.0 mg/kg/injection, schedule: Q01DX009 (ip), vehicle: saline 115 % of control | [2] 120 % of control | [4] 90 % of control

CC(C)NC(=O)OCCS(=O)c1c(Cl)c(Cl)nn1C (stereo not drawn)
inactive: [10] 117 % of control | [11] 109 % of control

NC(=O)/C=C\C(=O)NC1CCSC1=O (stereo not drawn)
inactive: dose: 60.0 mg/kg/injection, schedule: Q01DX005 (ip), vehicle: saline + Tween-80 + alcohol 105 % of control | dose: 120.0 mg/kg/injection, schedule: Q01DX005 (ip), vehicle: saline + Tween-80 + alcohol 94 % of control | dose: 240.0 mg/kg/injection, schedule: Q01DX005 (ip), vehicle: saline + Tween-80 + alcohol 100 % of control

O=C1CCCCC1N1C(=O)c2ccccc2C1=O (stereo not drawn)
inactive: [16] 101 % of control | [17] 97 % of control | dose: 400.0 mg/kg/injection, schedule: Q04DX002 (ip), vehicle: Klucel (hydroxypropylcellulose) (HPC) 97 % of control

OC(Cc1ccnc2ccccc12)C(Cl)(Cl)Cl (stereo not drawn)
inactive: dose: 200.0 mg/kg/injection, schedule: Q04DX003 (ip), vehicle: saline with Tween-80 104 % of control | dose: 400.0 mg/kg/injection, schedule: Q04DX003 (ip), vehicle: saline with Tween-80 90 % of control

Cc1cccc(-n2c(=O)c3[nH]c4ccccc4sc=3c2=O)c1
inactive: [10] 104 % of control | [11] 107 % of control | [12] 92 % of control

OC1CCCC1NC1CCCCC1 (stereo not drawn)
inactive: dose: 15.0 mg/kg/injection, schedule: Q01DX005 (ip), vehicle: Klucel (hydroxypropylcellulose) (HPC) 102 % of control | dose: 30.0 mg/kg/injection, schedule: Q01DX005 (ip), vehicle: Klucel (hydroxypropylcellulose) (HPC) 102 % of control | [13] 104 % of control

C=C1C(=O)OC2C/C(C)=C/CC/C(C)=C/CCC3(COC(C)=O)OC3CC12 (stereo not drawn)
inactive: dose: 1.0 mg/kg/injection, schedule: Q01DX008 (ip), vehicle: Klucel (hydroxypropylcellulose) (HPC) 99 % of control | dose: 2.0 mg/kg/injection, schedule: Q01DX008 (ip), vehicle: Klucel (hydroxypropylcellulose) (HPC) 100 % of control | dose: 4.0 mg/kg/injection, schedule: Q01DX008 (ip), vehicle: Klucel (hydroxypropylcellulose) (HPC) 97 % of control | dose: 8.0 mg/kg/injection, schedule: Q01DX008 (ip), vehicle: Klucel (hydroxypropylcellulose) (HPC) 103 % of control | dose: 16.0 mg/kg/injection, schedule: Q01DX008 (ip), vehicle: Klucel (hydroxypropylcellulose) (HPC) 107 % of control

CCOc1ccc(Nc2nc(C(Cl)(Cl)Cl)cc(C(Cl)(Cl)Cl)n2)cc1CN(CC)CC
inactive: dose: 6.25 mg/kg/injection, schedule: Q01DX009 (ip), vehicle: saline sonified 100 % of control | dose: 12.5 mg/kg/injection, schedule: Q01DX009 (ip), vehicle: saline sonified 100 % of control | dose: 25.0 mg/kg/injection, schedule: Q01DX009 (ip), vehicle: saline sonified 100 % of control

Cc1cc(-c2ccccc2)n(C(C(=O)c2ccccc2)c2ccccc2)n1 (stereo not drawn)
inactive: [1] 101 % of control | [3] 106 % of control | [5] 100 % of control

COc1cc2c3cc1Oc1c(OC)c(OC)cc4c1[C@@H](Cc1ccc(OC)c(c1OC)Oc1ccc(cc1)C[C@@H]3N(C)CC2)N(C)CC4
inactive: dose: 3.63 mg/kg/injection, schedule: Q01DX005 (ip), vehicle: Klucel (hydroxypropylcellulose) (HPC) 103 % of control | dose: 7.25 mg/kg/injection, schedule: Q01DX005 (ip), vehicle: Klucel (hydroxypropylcellulose) (HPC) 99 % of control | dose: 14.5 mg/kg/injection, schedule: Q01DX005 (ip), vehicle: Klucel (hydroxypropylcellulose) (HPC) 102 % of control | dose: 29.0 mg/kg/injection, schedule: Q01DX005 (ip), vehicle: Klucel (hydroxypropylcellulose) (HPC) 93 % of control | dose: 58.0 mg/kg/injection, schedule: Q01DX005 (ip), vehicle: Klucel (hydroxypropylcellulose) (HPC) 109 % of control

CCOC(=O)/C(C#N)=C\c1c(OC(C)=O)cn2c(C)cccc12
inactive: dose: 100.0 mg/kg/injection, schedule: Q01DX001 (ip), vehicle: saline with Tween-80 104 % of control | dose: 200.0 mg/kg/injection, schedule: Q01DX001 (ip), vehicle: saline with Tween-80 98 % of control | dose: 400.0 mg/kg/injection, schedule: Q01DX001 (ip), vehicle: saline with Tween-80 98 % of control

CC1=C(c2cc3ccccc3c3ccccc23)CCCC1
inactive: [3] 104 % of control | [5] 98 % of control | [6] 100 % of control

O=C(c1ccc(C(F)(F)F)cc1)N1C2C3C=CC(C3)C2N1C(=O)c1ccc(C(F)(F)F)cc1 (stereo not drawn)
inactive: dose: 50.0 mg/kg/injection, schedule: Q04DX002 (ip), vehicle: Klucel (hydroxypropylcellulose) (HPC) 102 % of control | [16] 106 % of control | [17] 102 % of control

CCCNC(=O)OCc1cnc2ccc(OC)cc2c1COC(=O)NCCC
inactive: [9] 96 % of control | [14] 96 % of control | [15] 93 % of control

COCC(=O)c1ccccc1-c1ccccc1
inactive: [18] 100 % of control | [19] 103 % of control | [20] 110 % of control

CNC(=O)OCC1=C(COC(=O)NC)C(=O)c2ccccc2C1=O
inactive: dose: 6.25 mg/kg/injection, schedule: Q01DX005 (ip), vehicle: Klucel (hydroxypropylcellulose) (HPC) 96 % of control | [7] 105 % of control | [8] 112 % of control

COC(=O)[C@H]1[C@H]2C[C@@H]3c4[nH]c5cc(OC)ccc5c4CCN3C[C@H]2C[C@@H](OC(=O)c2ccc(N)cc2)[C@@H]1OC
inactive: [18] 97 % of control | [19] 87 % of control | [20] 94 % of control
